Measured values from US6083964A, “Optical resolution of racemic aminoalkylpyridine anticonvulsants and (+) aminoalkylpyridine enantiomers as highly potent orally effective anticonvulsant drugs and excitatory amino acid antagonists” (K and K Biosciences, Inc., priority 1999, dated 2000).

Key:
[1] = Neurotoxicity, rotorod ataxia test, mice, i.p.; design: species or system mouse (male Carworth Farms #1); conditions: mouse, in vivo, ip, TD50
Experimental: (§1) Neurotoxicity is determined by the rotorod ataxia test in mice and by the positional sense test and gait and stance test in the rat. The following Table 2 presents the results of these anticonvulsant tests with respect to several (+) and (-) AAP enantiomeric compounds derived from optical resolution of racemic AAPs of the present invention. This Table 2 identifies the specific compounds tested by their chemical name and provides the test model, the route of administration, the animal species used, and the anticonvulsant activity and toxicity in terms of ED50 and TD50 values, (the median effective and toxic dose respectively), when intraperitoneally administered to mice, and when orally administered to rats. In mice, i.p.: All compounds are emulsified in 0.5% methylcellulose. The solvent has been tested for anticonvulsant and toxic effects and found to introduce no significant bias into the testing of anticonvulsant activity. The compounds are administered intraperitoneally in a volume of 0.01 ml/gm to male Carworth Farms #1 mice weighing about 20 gm. All compounds are tested at least at three dose levels (30, 100 and 300 mg/kg) at 30 minutes and 4 hours after their administration. Neurotoxicity is evaluated in mice by the rotorod ataxia test. The animal is placed on a wooden rod of 1 and 1/8 diameter rotating at 6 rpm. Normal mice can remain on a rod rotating at this speed indefinitely. […] Anticonvulsant Quantification in Mice i.p.: The ED50 values are determined in the MES, scMet and rotorod ataxia test. To determine the ED50 values, five logarithmically spaced doses of the test compound are administered to animals (male Carworth Farms #1 mice) in groups of eight, to cover 0-100% protection, and the dose required to protect 50% of the animals (ED50) together with its 95% confidence limits, is determined graphically.

hippocampal kindled rats = assay: Toxicity in hippocampal kindled rats, i.p.; format: in vivo; conditions: 100 mg/kg i.p., 45 min
Experimental: The (+) AAP enantiomer, compound 1 in Table 1, was tested in the hippocampal kindled rat, by the i.p. route. […]

[2] = tested on: neurotoxicity (rotorod ataxia) in mice; assay: Neurotoxicity, rotorod ataxia test, mice, i.p.; design: species or system mouse (male Carworth Farms #1); conditions: mouse, in vivo, ip
Experimental: as §1

CC(Nc1ccc(Cl)cc1)c1ccncc1 (single isomer, unassigned; (+)) [Compound 1, (+) N-(4-Chlorophenyl)-1-(4-pyridyl)ethylamine]
TD50 [1]: 149 mg/kg
toxic (number of animals) (hippocampal kindled rats): 2/7

CC(Nc1ccc(Cl)cc1)c1ccncc1 (single isomer, unassigned; (-)) [Compound 2, (-) N-(4-Chlorophenyl)-1-(4-pyridyl)ethylamine]
TD50 [2]: 219.4 mg/kg
